Converted amounts (≈) assume the structure as drawn.
Columns and labels:
Escherichia coli [1] = assay: microbe, parasite or virus in culture; details: ATCC 25922
Description: Antibacterial activity against Escherichia coli ATCC 25922 assessed as reduction in microbial growth preincubated for 20 to 24 hrs followed by subculture in absence of compound and measured on day 4 CLSI based broth microdilution susceptibility method

Escherichia coli [2] = assay: microbe, parasite or virus in culture; details: ATCC 29213
Description: Antibacterial activity against Escherichia coli ATCC 29213 assessed as reduction in microbial growth preincubated for 20 to 24 hrs followed by subculture in absence of compound and measured on day 4 CLSI based broth microdilution susceptibility method

in vitro = details: mouse, liver microsomes
Description: Intrinsic clearance in mouse liver microsomes preincubated for 10 mins followed by NADPH regenerating system addition and measured up to 30 mins by LC/MS-MS analysis

physchem [3] = details: PBS, pH 6.5
Description: Solubility of compound in PBS at pH 6.5 incubated for over night by HPLC-UV based lyophilization solubility assay

physchem [4] = assay: physchem
Description: Ionization constant (acid), pKa of the compound by photometric titration assay

[5] = Distribution coefficient between octanol and buffer, log D of the compound in pH 7.4 buffer by CAMDIS assay; type: physicochemical

Row | SMILES | MIC (Escherichia coli [1]) | MIC (Escherichia coli [2]) | CLint scaled at 0.5 h (in vitro) | solubility (physchem [3]) | pKa (physchem [4]) | logD [5]
1 | CCNc1cc(F)cc2c1[nH]c1ncc(-c3cncc(C#N)c3)c(-n3nc(C(F)(F)F)cc3CO)c12 | > 16 µg/mL | – | – | – | – | –
2 | CCNc1cc(F)cc2c1[nH]c1ncc(-c3cncc(C#N)c3)c(-n3ccc(C#N)n3)c12 | 0.125 µg/mL (≈ 0.296 µM) | < 0.016 µg/mL | – | < 1 µg/mL | – | –
3 | CCNc1cc(F)cc2c1[nH]c1ncc(-c3cnc4c(c3)c(=O)c(C(=O)O)cn4C)c(-n3ccc(C(F)(F)F)n3)c12 | 1 µg/mL (≈ 1.77 µM) | < 0.125 µg/mL | – | – | – | 2.54
4 | CCNc1cc(F)cc2c1[nH]c1ncc(-c3cnc(N4CCOCC4)nc3)c(-n3ccc(C(F)(F)F)n3)c12 | 1 µg/mL (≈ 1.9 µM) | < 0.016 µg/mL | 24.2 mL/min/kg | < 1 µg/mL | – | –
5 | CCNc1cc(F)cc2c1[nH]c1ncc(-c3cnc(C(=O)O)nc3)c(-n3ccc(C(F)(F)F)n3)c12 | 16 µg/mL (≈ 33 µM) | 4 µg/mL (≈ 8.24 µM) | – | – | – | –
6 | CCNc1cc(F)cc2c1[nH]c1ncc(-c3cncc(C#N)c3)c(-n3ccc(C)n3)c12 | 2 µg/mL (≈ 4.86 µM) | < 0.25 µg/mL | – | < 1 µg/mL | – | –
7 | CCNc1cc(F)cc2c1[nH]c1ncc(-c3cnc(NC4CNC4)nc3)c(-n3ccc(C(F)(F)F)n3)c12 | 4 µg/mL (≈ 7.82 µM) | < 0.25 µg/mL | – | – | 9.35 | –
8 | CCNc1cc(F)cc2c1[nH]c1ncc(-c3cnc(C)nc3)c(-n3ccc(C(F)(F)F)n3)c12 | 0.5 µg/mL (≈ 1.1 µM) | < 0.016 µg/mL | – | – | – | –
9 | CCNc1cc(F)cc2c1[nH]c1ncc(-c3cncc(C(=O)NOC)c3)c(-n3ccc(C(F)(F)F)n3)c12 | 0.5 µg/mL (≈ 0.974 µM) | < 0.125 µg/mL | – | – | – | 3.41
10 | CCNc1cc(F)cc2c1[nH]c1ncc(-c3cncc(C(=O)NO)c3)c(-n3ccc(C(F)(F)F)n3)c12 | 2 µg/mL (≈ 4 µM) | < 0.125 µg/mL | – | – | – | 3.05
11 | CCNc1cc(F)cc2c1[nH]c1ncc(-c3cnc(CC(=O)O)nc3)c(-n3ccc(C(F)(F)F)n3)c12 | 1 µg/mL (≈ 2 µM) | < 0.016 µg/mL | 44 mL/min/kg | 9 µg/mL (≈ 18 µM) | – | –
12 | CCNc1cc(F)cc2c1[nH]c1ncc(-c3cncc(C#N)c3)c(-n3ccc(C(=O)O)n3)c12 | > 16 µg/mL | > 16 µg/mL | – | – | – | –

Further lines, results first:

Row | MIC (Escherichia coli [1]) | MIC (Escherichia coli [2]) | CLint scaled at 0.5 h (in vitro) | solubility (physchem [3]) | pKa (physchem [4]) | logD [5] | SMILES
13 | 2 µg/mL (≈ 4.12 µM) | < 0.016 µg/mL | 37 mL/min/kg | < 0.3 µg/mL | – | – | CCNc1cc(F)cc2c1[nH]c1ncc(-c3cnc(OCC)nc3)c(-n3ccc(C(F)(F)F)n3)c12
14 | 4 µg/mL (≈ 7.21 µM) | < 0.016 µg/mL | – | 133 µg/mL (≈ 240 µM) | – | – | CCNc1cc(F)cc2c1[nH]c1ncc(-c3cnc(NCC4(C(=O)O)CC4)nc3)c(-n3ccc(C(F)(F)F)n3)c12
15 | 1 µg/mL (≈ 1.95 µM) | 0.63 µg/mL (≈ 1.23 µM) | – | – | 8.62 | – | CCNc1cc(F)cc2c1[nH]c1ncc(-c3cnc(OC4CNC4)nc3)c(-n3ccc(C(F)(F)F)n3)c12
16 | 8 µg/mL (≈ 15.3 µM) | 0.5 µg/mL (≈ 0.953 µM) | – | – | – | 2.8 | CCNc1cc(F)cc2c1[nH]c1ncc(-c3cncc(N4CCNCC4)c3)c(-n3ccc(C(F)(F)F)n3)c12
17 | 1 µg/mL (≈ 2.19 µM) | 0.63 µg/mL (≈ 1.38 µM) | 25.9 mL/min/kg | 7.6 µg/mL (≈ 16.7 µM) | 4.39 | – | CCNc1cc(F)cc2c1[nH]c1ncc(-c3cnc(N)nc3)c(-n3ccc(C(F)(F)F)n3)c12
18 | 0.73 µg/mL (≈ 1.36 µM) | < 0.056 µg/mL | – | – | – | 3.38 | CCNc1cc(F)cc2c1[nH]c1ncc(-c3cncc(Cc4n[nH]c(=O)o4)c3)c(-n3ccc(C(F)(F)F)n3)c12
19 | 0.5 µg/mL (≈ 1.04 µM) | < 0.016 µg/mL | – | < 1 µg/mL | – | – | CCNc1cc(F)cc2c1[nH]c1ncc(-c3cncc(C#N)c3)c(-c3nc(C(F)(F)F)cs3)c12
20 | > 16 µg/mL | < 0.25 µg/mL | – | < 0.3 µg/mL | – | – | CCNc1cc(F)cc2c1[nH]c1ncc(-c3cncc(C#N)c3)c(-n3ccc(C(C)(C)C)n3)c12
21 | 1 µg/mL (≈ 2.24 µM) | < 0.25 µg/mL | – | < 1 µg/mL | – | – | CCNc1cc(F)cc2c1[nH]c1ncc(-c3cncc(C#N)c3)c(-n3ccc(C(F)F)n3)c12
22 | 0.5 µg/mL (≈ 1.06 µM) | < 0.016 µg/mL | 20.2 mL/min/kg | < 1 µg/mL | – | – | CCNc1cc(F)cc2c1[nH]c1ncc(-c3cnc(OC)nc3)c(-n3ccc(C(F)(F)F)n3)c12
23 | > 16 µg/mL | 0.063 µg/mL (≈ 0.133 µM) | – | – | – | – | CCNc1cc(F)cc2c1[nH]c1ncc(-c3cncc(C#N)c3)c(-c3cccc(C(F)(F)F)c3)c12
24 | 8 µg/mL (≈ 19.4 µM) | 0.125 µg/mL (≈ 0.303 µM) | – | – | 2.02 | – | CCNc1cc(F)cc2c1[nH]c1ncc(-c3cncc(C#N)c3)c(-n3ccc(N)n3)c12
25 | > 16 µg/mL | – | – | – | – | – | CCNc1cc(F)cc2c1[nH]c1ncc(-c3cncc(C#N)c3)c(-n3cc(C(=O)O)c(C(F)(F)F)n3)c12
26 | 8 µg/mL (≈ 16.7 µM) | – | – | – | – | – | CCNc1cc(F)cc2c1[nH]c1ncc(-c3cncc(C#N)c3)c(-n3nc(C(F)(F)F)cc3C)c12
27 | > 16 µg/mL | – | – | – | – | – | CCNc1cc(F)cc2c1[nH]c1ncc(-c3cncc(C#N)c3)c(-n3cc(C(N)=O)c(C(F)(F)F)n3)c12
28 | 1 µg/mL (≈ 2.35 µM) | < 0.25 µg/mL | – | < 0.3 µg/mL | – | – | CCNc1cc(F)cc2c1[nH]c1ncc(-c3cncc(C#N)c3)c(-n3ccc(CC)n3)c12
29 | 1 µg/mL (≈ 1.85 µM) | 0.63 µg/mL (≈ 1.17 µM) | – | – | 9.06 | – | CCNc1cc(F)cc2c1[nH]c1ncc(-c3cnc(OC4CCNCC4)nc3)c(-n3ccc(C(F)(F)F)n3)c12

Source: ChEMBL document CHEMBL4725353, “Discovery of Pyrido[2,3-b]indole Derivatives with Gram-Negative Activity Targeting Both DNA Gyrase and Topoisomerase IV” (J Med Chem, 2020)
